{"source": "the supplement of paper PMC10307832", "test_in_all_cases": "relative viability (nuclei count vs DMSO), 5 days (fraction); higher = more cells survive", "key": {"A-427": {"tested_on": "A-427", "in_short": "(§1)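 Lung cancer cell lines were seeded in 1536-well plates and dosed by pin tool the next day, with either a single drug or a fixed anchor-drug dose combined with five library-drug doses (not always all listed) spaced in √10 steps. Five days later, one step fixed the cells and stained their nuclei (final 0.05% Triton X-100, 1% formaldehyde, 1 ug/ml Hoechst), and nuclei were counted on 4× images. Relative viability is the nuclei count in treated wells divided by the count in vehicle wells, and each value is the median of duplicate plates.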"}, "EPLC-272H": {"tested_on": "EPLC-272H", "in_short": "as §1"}, "HCC-366": {"tested_on": "HCC-366", "in_short": "as §1"}, "HCC-78": {"tested_on": "HCC-78", "in_short": "as §1"}, "HOP-62": {"tested_on": "HOP-62", "in_short": "as §1"}, "LC-2-ad": {"tested_on": "LC-2-ad", "in_short": "as §1"}, "LU99A": {"tested_on": "LU99A", "in_short": "as §1"}, "LXF-289": {"tested_on": "LXF-289", "in_short": "as §1"}, "NCI-H1666": {"tested_on": "NCI-H1666", "in_short": "as §1"}, "NCI-H1792": {"tested_on": "NCI-H1792", "in_short": "as §1"}, "NCI-H1793": {"tested_on": "NCI-H1793", "in_short": "as §1"}, "NCI-H1915": {"tested_on": "NCI-H1915", "in_short": "as §1"}, "NCI-H1944": {"tested_on": "NCI-H1944", "in_short": "as §1"}, "NCI-H2085": {"tested_on": "NCI-H2085", "in_short": "as §1"}, "NCI-H2170": {"tested_on": "NCI-H2170", "in_short": "as §1"}, "NCI-H358": {"tested_on": "NCI-H358", "in_short": "as §1"}, "NCI-H460": {"tested_on": "NCI-H460", "in_short": "as §1"}, "SW 900": {"tested_on": "SW 900", "in_short": "as §1"}}}
{"smiles": "CC(=O)O[C@@]12CO[C@@H]1C[C@H](O)[C@@]1(C)C(=O)[C@H](O)C3=C(C)[C@@H](OC(=O)[C@H](O)[C@@H](NC(=O)OC(C)(C)C)c4ccccc4)C[C@@](O)([C@@H](OC(=O)c4ccccc4)[C@H]21)C3(C)C", "note": "[Docetaxel] + NC(=O)Nc1cc(-c2cccc(F)c2)sc1C(=O)N[C@H]1CCCNC1 [AZD7762] (partner 0.2 µM)", "values": [{"measurement": "relative viability", "setting": "A-427; first compound 0.0002 µM", "value": 0.729}, {"measurement": "relative viability", "setting": "A-427; first compound 0.000632 µM", "value": 0.768}, {"measurement": "relative viability", "setting": "A-427; first compound 0.002 µM", "value": 0.461}, {"measurement": "relative viability", "setting": "A-427; first compound 0.006325 µM", "value": 0.266}, {"measurement": "relative viability", "setting": "A-427; first compound 0.02 µM", "value": 0.222}, {"measurement": "relative viability", "setting": "EPLC-272H; first compound 0.000632 µM", "value": 0.191}, {"measurement": "relative viability", "setting": "EPLC-272H; first compound 0.002 µM", "value": 0.0912}, {"measurement": "relative viability", "setting": "EPLC-272H; first compound 0.006325 µM", "value": 0.149}, {"measurement": "relative viability", "setting": "EPLC-272H; first compound 0.02 µM", "value": 0.0556}, {"measurement": "relative viability", "setting": "HCC-366; first compound 0.0002 µM", "value": 0.206}, {"measurement": "relative viability", "setting": "HCC-366; first compound 0.000632 µM", "value": 0.0949}, {"measurement": "relative viability", "setting": "HCC-366; first compound 0.002 µM", "value": 0.145}, {"measurement": "relative viability", "setting": "HCC-366; first compound 0.006325 µM", "value": 0.0384}, {"measurement": "relative viability", "setting": "HCC-366; first compound 0.02 µM", "value": 0.0132}, {"measurement": "relative viability", "setting": "HCC-78; first compound 0.0002 µM", "value": 0.479}, {"measurement": "relative viability", "setting": "HCC-78; first compound 0.000632 µM", "value": 0.545}, {"measurement": "relative viability", "setting": "HCC-78; first compound 0.002 µM", "value": 0.318}, {"measurement": "relative viability", "setting": "HCC-78; first compound 0.006325 µM", "value": 0.394}, {"measurement": "relative viability", "setting": "HCC-78; first compound 0.02 µM", "value": 0.364}, {"measurement": "relative viability", "setting": "HOP-62; first compound 0.0002 µM", "value": 0.6}, {"measurement": "relative viability", "setting": "HOP-62; first compound 0.000632 µM", "value": 0.395}, {"measurement": "relative viability", "setting": "HOP-62; first compound 0.02 µM", "value": 0.0943}, {"measurement": "relative viability", "setting": "LC-2-ad; first compound 0.0002 µM", "value": 0.8}, {"measurement": "relative viability", "setting": "LC-2-ad; first compound 0.000632 µM", "value": 0.353}, {"measurement": "relative viability", "setting": "LC-2-ad; first compound 0.002 µM", "value": 0.224}, {"measurement": "relative viability", "setting": "LC-2-ad; first compound 0.006325 µM", "value": 0.274}, {"measurement": "relative viability", "setting": "LC-2-ad; first compound 0.02 µM", "value": 0.178}, {"measurement": "relative viability", "setting": "LU99A; first compound 0.0002 µM", "value": 0.328}, {"measurement": "relative viability", "setting": "LU99A; first compound 0.000632 µM", "value": 0.253}, {"measurement": "relative viability", "setting": "LU99A; first compound 0.002 µM", "value": 0.194}, {"measurement": "relative viability", "setting": "LU99A; first compound 0.006325 µM", "value": 0.228}, {"measurement": "relative viability", "setting": "LU99A; first compound 0.02 µM", "value": 0.104}, {"measurement": "relative viability", "setting": "LXF-289; first compound 0.0002 µM", "value": 1.1}, {"measurement": "relative viability", "setting": "LXF-289; first compound 0.000632 µM", "value": 0.664}, {"measurement": "relative viability", "setting": "LXF-289; first compound 0.002 µM", "value": 0.346}, {"measurement": "relative viability", "setting": "LXF-289; first compound 0.006325 µM", "value": 0.129}, {"measurement": "relative viability", "setting": "LXF-289; first compound 0.02 µM", "value": 0.0873}, {"measurement": "relative viability", "setting": "NCI-H1666; first compound 0.0002 µM", "value": 0.692}, {"measurement": "relative viability", "setting": "NCI-H1666; first compound 0.000632 µM", "value": 0.695}, {"measurement": "relative viability", "setting": "NCI-H1666; first compound 0.002 µM", "value": 0.521}, {"measurement": "relative viability", "setting": "NCI-H1666; first compound 0.006325 µM", "value": 0.465}, {"measurement": "relative viability", "setting": "NCI-H1666; first compound 0.02 µM", "value": 0.359}, {"measurement": "relative viability", "setting": "NCI-H1792; first compound 0.0002 µM", "value": 0.666}, {"measurement": "relative viability", "setting": "NCI-H1792; first compound 0.000632 µM", "value": 0.465}, {"measurement": "relative viability", "setting": "NCI-H1792; first compound 0.002 µM", "value": 0.24}, {"measurement": "relative viability", "setting": "NCI-H1792; first compound 0.006325 µM", "value": 0.0705}, {"measurement": "relative viability", "setting": "NCI-H1792; first compound 0.02 µM", "value": 0.0512}, {"measurement": "relative viability", "setting": "NCI-H1793; first compound 0.0002 µM", "value": 0.369}, {"measurement": "relative viability", "setting": "NCI-H1793; first compound 0.000632 µM", "value": 0.381}, {"measurement": "relative viability", "setting": "NCI-H1793; first compound 0.002 µM", "value": 0.299}, {"measurement": "relative viability", "setting": "NCI-H1793; first compound 0.006325 µM", "value": 0.204}, {"measurement": "relative viability", "setting": "NCI-H1793; first compound 0.02 µM", "value": 0.144}, {"measurement": "relative viability", "setting": "NCI-H1915; first compound 0.0002 µM", "value": 0.638}, {"measurement": "relative viability", "setting": "NCI-H1915; first compound 0.000632 µM", "value": 0.703}, {"measurement": "relative viability", "setting": "NCI-H1915; first compound 0.002 µM", "value": 0.527}, {"measurement": "relative viability", "setting": "NCI-H1915; first compound 0.006325 µM", "value": 0.182}, {"measurement": "relative viability", "setting": "NCI-H1915; first compound 0.02 µM", "value": 0.107}, {"measurement": "relative viability", "setting": "NCI-H1944; first compound 0.0002 µM", "value": 0.667}, {"measurement": "relative viability", "setting": "NCI-H1944; first compound 0.000632 µM", "value": 0.476}, {"measurement": "relative viability", "setting": "NCI-H1944; first compound 0.002 µM", "value": 0.339}, {"measurement": "relative viability", "setting": "NCI-H1944; first compound 0.006325 µM", "value": 0.25}, {"measurement": "relative viability", "setting": "NCI-H1944; first compound 0.02 µM", "value": 0.102}, {"measurement": "relative viability", "setting": "NCI-H2085; first compound 0.0002 µM", "value": 0.963}, {"measurement": "relative viability", "setting": "NCI-H2085; first compound 0.000632 µM", "value": 0.954}, {"measurement": "relative viability", "setting": "NCI-H2085; first compound 0.002 µM", "value": 0.849}, {"measurement": "relative viability", "setting": "NCI-H2085; first compound 0.006325 µM", "value": 0.338}, {"measurement": "relative viability", "setting": "NCI-H2085; first compound 0.02 µM", "value": 0.309}, {"measurement": "relative viability", "setting": "NCI-H2170; first compound 0.0002 µM", "value": 0.895}, {"measurement": "relative viability", "setting": "NCI-H2170; first compound 0.000632 µM", "value": 0.722}, {"measurement": "relative viability", "setting": "NCI-H2170; first compound 0.002 µM", "value": 0.581}, {"measurement": "relative viability", "setting": "NCI-H2170; first compound 0.02 µM", "value": 0.131}, {"measurement": "relative viability", "setting": "NCI-H358; first compound 0.0002 µM", "value": 0.429}, {"measurement": "relative viability", "setting": "NCI-H358; first compound 0.000632 µM", "value": 0.328}, {"measurement": "relative viability", "setting": "NCI-H358; first compound 0.006325 µM", "value": 0.24}, {"measurement": "relative viability", "setting": "NCI-H358; first compound 0.02 µM", "value": 0.159}, {"measurement": "relative viability", "setting": "NCI-H460; first compound 0.0002 µM", "value": 0.565}, {"measurement": "relative viability", "setting": "NCI-H460; first compound 0.000632 µM", "value": 0.575}, {"measurement": "relative viability", "setting": "NCI-H460; first compound 0.002 µM", "value": 0.167}, {"measurement": "relative viability", "setting": "NCI-H460; first compound 0.006325 µM", "value": 0.0571}, {"measurement": "relative viability", "setting": "NCI-H460; first compound 0.02 µM", "value": 0.0404}, {"measurement": "relative viability", "setting": "SW 900; first compound 0.0002 µM", "value": 0.452}, {"measurement": "relative viability", "setting": "SW 900; first compound 0.000632 µM", "value": 0.234}, {"measurement": "relative viability", "setting": "SW 900; first compound 0.002 µM", "value": 0.287}, {"measurement": "relative viability", "setting": "SW 900; first compound 0.006325 µM", "value": 0.235}, {"measurement": "relative viability", "setting": "SW 900; first compound 0.02 µM", "value": 0.161}]}
